The target in test [1] is T1, MBL (Homo sapiens, UniProt P11226).
T1 construct: 3 hr of reoxygenation in the presence of 30% human serum (HS); from tissue; host or cells: human serum (30% HS on HUVECs; 2% human sera on mannan-coated plates)
The test is described as follows: iC3b (C3) deposition cell surface ELISA on hypoxic/reoxygenated HUVECs. The test is classed as cell-based. The conditions noted are these: for attenuation of iC3b deposition: HUVECs 24 hr hypoxia, 3 hr reoxygenation; for iC3b deposition compared with normoxic HUVECs (FIG. 4a): 30 mmol/L in 30% human serum; for inhibition of iC3b deposition on hypoxic/reoxygenated HUVECs (in words): sugar at 3-300 mmol/L in 30% HS. Here is the method: Enzyme-Linked Immunoabsorbent Assay (ELISA) Experiments. […] HUVECs were grown to confluence on 0.1% gelatinized 96-well plastic plates (Corning Costar, Cambridge, Mass.). The plates were then subjected to 0 (normoxia) or 24 hr of hypoxia. Hypoxic stress was maintained using a humidified sealed chamber (Coy Laboratory Products, Inc., Grass Lake, Mich.) at 37° C. gassed with 1% O2, 5% CO2, balance N2 (Collard C D, et al., “Reoxygenation of hypoxic human umbilical vein endothelial cells activates the classical complement pathway”, Circulation 1997;96:326-333). Following the specified period of normoxia or hypoxia, the cell media were aspirated and 100 μl of one of the following was added to each well: 1) 30% HS, 2) Hank's balanced salt solution, 3) 30% HS+3, 30, or 300 mmol/L GluNAc, 4) 30% HS+3, 30, or 300 mmol/L D-mannose, 5) 30% HS+3, 30, 300 mmol/L L-mannose, 6) 30% MBL-depleted HS+3F8 (0, 20, 50 μg/ml)or 7) 30% MBL-depleted HS +0.6 μg/ml MBL. Additionally, 100 μl of purified MBL (3-300 ng/ml) was added to select wells to form a standard curve for quantitative analysis of MBL deposition. The cells were then reoxygenated for 3 hr at 37° C. in 95% air and 5% CO2. The cells were washed and then fixed with 1% paraformaldehyde (Sigma Chemical Co., St. Louis, Mo.) for 30 min. The cells were then washed and incubated at 4° C. for 1.5 hr with 50 μl of peroxidase-conjugated polyclonal goat anti-human C3 antibody (1:1000 dilution) or monoclonal anti-human MBL antibody (1:1000 dilution). The MBL ELISA plates were then washed and incubated for 1 hr at 4° C. with 50 μl of peroxidase-conjugated polyclonal goat anti-mouse IgG secondary antibody (1:1000 dilution). After washing the cells, the plates were developed with […] of ABTS (2,2′-azino-bis(3-ethylbenzthiazoline-6-sulfonic acid)), and read (Molecular Devices, Sunnyvale, Calif.) at 405 nm. Background controls for the C3 ELISA consisted of cells to which only the anti-human C3 antibody was added (i.e., no […]) or cells incubated with 30% heat-inactivated HS. Background controls for the MBL ELISA consisted of cells to which only secondary antibody and an isotype control monoclonal antibody to porcine C5a were added. Background optical density was subtracted from all groups. All ELISA experiments were performed 3 times using 6 wells per experimental group. Endothelial C3 and MBL deposition on normoxic vs. hypoxic […] was analyzed by two-way analysis of variance (ANOVA).
HUVEC cell culture and quantitation of iC3b deposition by ELISA were performed as outlined in Example 2.
Results. HUVECs were subjected to 0 or 24 hr of hypoxia followed by 3 hr of reoxygenation in the presence of 30% HS or 30% HS treated with 3, 30, or 300 mmol/L GluNAc, D-mannose or L-mannose in order to inhibit MBL deposition, LCP activation and iC3b deposition.
HUBECs were hypoxic for 24 hours and then reoxygenated in 30% human sera. iC3b deposition was then normalized to normoxic cells.
On the technique in general: An ELISA detects its analyte on a solid surface through an enzyme-linked reagent.

The target in test [2] is T1, MBL. The test is described as follows: Functional screen: C3 deposition on mannan-coated plates in 2% human sera. It counts as biochemical. Here is the method:
Methods. The functional screen for inhibition of MBL function by anti-human MBL antibodies was adapted from the literature{Super, Levinsky, et al., The level of mannan-binding protein regulates the binding of complement-derived opsonins to mannanand zymosan at low serum concentrations, Clin. Exp. Immunol. 1990; 79:144-150}. Briefly, 100 μl of mcannan (0.5 mg/ml in sodium carbonate/bicarbonate buffer, pH 9.6) was added to RIA/EIA plates at 4C overnight. The plates were then washed 3 times in PBS/0.5% Tween pH 7.3, once in PBS and finally in veronal-buffered saline. Human serum is diluted to 4% in VBS containing 5 mM Ca^2+ and Mg^2+. Diluted sera and tissue culture supernatant or purified antibody (various concentrations) are then 1:1 to a mannan-coated well to yield a final volume or 100 μl at a concentration of 2% human sera. The plate is then incubated at 37C for 30 min. Positive and negative controls consist of human sera without and with 100 mM N-acetlglucosamine (GluNac). The plates are then washed four times in PBS/Tween. The plates are then incubated with an anti-human C3 polyclonal antibody coupled with HRP (1 hours at RT), washed and developed with ABTS and read at 405 nm.

Test [3] addresses T1, MBL. Put plainly: MBL deposition cell surface ELISA on hypoxic/reoxygenated HUVECs. The conditions noted are these: for attenuation of MBL deposition: HUVECs 24 hr hypoxia, 3 hr reoxygenation. It counts as cell-based. Here is the method: C3 and MBL specific cell surface ELISAs can be performed using peroxidase-conjugated polyclonal goat anti-human C3 antibody (Cappel, West Chester, Pa.) and monoclonal anti-human MBL antibody (Biodesign, Kennebunk, Me., clone #131-1), respectively. HUVECs are grown to confluence on 0.1% gelatinized 96-well plastic plates (Corning Costar, Cambridge, Mass.). The plates are then subjected to 0 (normoxia) or 24 hr of hypoxia. Hypoxic stress is maintained using a humidified sealed chamber (Coy Laboratory Products, Inc., Grass Lake, Mich.) at 37° C. gassed with 1% O2, 5% CO2, balance N2 (Collard C D, et al., “Reoxygenation of hypoxic human umbilical vein endothelial cells activates the classical complement pathway”, Circulation, 1997;96:326-333). Following the specified period of normoxia or hypoxia, the cell media are aspirated and 100 μl of one the following is added to each well: 1) 30% HS, 2) Hank's balanced salt solution, 3) 30% HS +3, 30, or 300 mmol/L GluNAc, 4) 30% HS+3, 30, or 300 mmol/L D-mannose, 5) 30% HS+3, 30, 300 mmol/L L-mannose, 6) 30% MBL-depleted HS 7) 30% MBL-depleted HS+0.6 μg/ml MBL or 8) 30% HS+3, 30, or 300 mmol/L putative MBL binding peptide. Additionally, 100 μl of purified MBL (3-300 ng/ml) is added to select wells to form a standard curve for quantitative analysis of MBL deposition. The cells are then reoxygenated for 3 hr at 37° C. in 95% air and 5% CO2. The cells are washed and then fixed with 1% paraformaldehyde (Sigma Chemical Co., St. Louis, Mo.) for 30 min. The cells are then washed and incubated at 4° C. for 1.5 hr with 50 μl of peroxidase-conjugated polyclonal goat anti-human C3 antibody (1:1000 dilution) or monoclonal anti-human MBL antibody (1:1000 dilution). The MBL ELISA plates are then washed and incubated for 1 hr at 4° C. with 50 μl of peroxidase-conjugated polyclonal goat anti-mouse IgG secondary antibody (1:1000 dilution). After washing the cells, the plates are developed with 50 μl of ABTS (2,2′-azino-bis(3-ethylbenzthiazoline-6-sulfonic acid)), and read (Molecular Devices, Sunnyvale, Calif.) at 405 nm. Background controls for the C3 ELISA consist of cells to which only the anti-human C3 antibody is added (i.e., no HS) or cells incubated with 30% heat-inactivated HS. Background controls for the MBL ELISA consist of cells to which only secondary antibody and an isotype control monoclonal antibody to porcine C5a are added. Background optical density is subtracted from all groups. ELISA experiments are generally performed 3 times using 6 wells per experimental group. Endothelial C3 and MBL deposition on normoxic vs. hypoxic HUVECs is analyzed by two-way analysis of variance (ANOVA).
Enzyme-Linked Immunoabsorbent Assay (ELISA) Experiments. […]

Test [4] has as its system HUVECs. The test is described as follows: Microphysiometry of HUVEC extracellular acidification rate (EAR). It counts as cell-based, human. The conditions noted are these: normoxic or hypoxic/reoxygenated HUVECs; MBL 300-1500 ng/ml, 40 min perfusion; histamine 1 μmol/L. Here is the method:
Microphysiometry. Changes in HUVEC extracellular acidification rate (EAR) were evaluated by use of a Cytosensor microphysiometer (Molecular Devices, Sunnyvale, Calif.). HUVECs were grown to 75% confluence on gelatin-coated (1%) transwell capsules and subjected to 24 hr of hypoxia followed by 3 hr of reoxygenation. Following 30 min of equilibration in modified RPMI containing 1 mmol/L phosphate buffer (Molecular Devices, Sunnyvale, Calif.), the EARs were determined (Gronert K, et al., “Characterization of human neutrophil and endothelial cell ligand-operated extacellular acidification rate by microphysiometry: Impact of reoxygenation”, J. Pharmacol.Exp.Ther. 1998;285:252-261). HUVECs were perfused with 300-1500 ng/ml of purified MBL (dialyzed in the modified RPMI) for 30 sec before the first rate measurement and perfusion was maintained for 40 min. As a positive control, the HUVECs were perfused with media alone for 15 min following MBL exposure and then stimulated with histamine (1 μmol/L, 15 min perfusion) to evoke extracellular acidification. Each concentration of MBL was analyzed in two independent chambers containing normoxic or hypoxic/reoxygenated HUVECs. The HUVEC response to each MBL concentration was evaluated in 3 separate experiments (n=3).

T1 sequence (P11226 21-248): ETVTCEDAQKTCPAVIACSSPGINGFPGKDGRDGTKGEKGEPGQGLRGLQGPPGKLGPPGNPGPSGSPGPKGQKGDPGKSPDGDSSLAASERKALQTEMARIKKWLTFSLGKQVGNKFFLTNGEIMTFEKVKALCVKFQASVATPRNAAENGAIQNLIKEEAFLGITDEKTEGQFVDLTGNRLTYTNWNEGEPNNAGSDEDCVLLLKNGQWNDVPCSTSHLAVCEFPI

`O=C[C@@H](O)[C@@H](O)[C@H](O)[C@H](O)CO` [D-mannose]: the results for the “attenuation of iC3b deposition” value in test [1] (3 mmol/L in 30% HS), in test [1] (30 mmol/L in 30% HS) and in test [1] (300 mmol/L in 30% HS) were 19±2%, 52±3% and 96±2%, respectively. The “iC3b deposition compared with normoxic HUVECs (FIG. 4a)” value in test [1] is recorded as “did not significantly differ from normoxic controls”. Also, in test [1], the “inhibition of iC3b deposition on hypoxic/reoxygenated HUVECs (in words)” value is “significantly attenuated”.
As to `CC(=O)N[C@H]1C(O)O[C@H](CO)[C@@H](O)[C@@H]1O` (stereo partly drawn) [GluNAc, N-acetyl-D-glucosamine], the half-maximal effective concentration (EC50) (usually the concentration giving half of the maximal effect) in test [2] is about 1 nM. For the same molecule, in test [1], the “iC3b deposition compared with normoxic HUVECs (FIG. 4a)” value was “did not significantly differ from normoxic controls”. In addition, in test [1], the “inhibition of iC3b deposition on hypoxic/reoxygenated HUVECs (in words)” value was “significantly attenuated”. In addition, the “attenuation of MBL deposition” value is 40±4% in test [3] (3 mmol/L in 30% HS), 71±5% in test [3] (30 mmol/L in 30% HS) and 96±3% in test [3] (300 mmol/L in 30% HS). In addition, the “MBL deposition on hypoxic/reoxygenated HUVECs (in words)” value in test [3] (3, 30, 300 mmol/L added to 30% HS, dose-dependent) is on record as “significantly inhibited MBL deposition”.
As for `O=C[C@H](O)[C@H](O)[C@@H](O)[C@@H](O)CO` [L-mannose], in test [1], the “iC3b deposition compared with normoxic HUVECs (FIG. 4a)” value is “significantly greater than normoxic HUVECs” and the “inhibition of iC3b deposition on hypoxic/reoxygenated HUVECs (in words)” value is “did not inhibit iC3b deposition”. Besides, the “iC3b deposition, OD405” value in test [1] (hypoxic HUVECs reoxygenated in 30% HS treated with the sugar, normoxic 0.05±0.01) was found to be 0.14±0.01.
For `NCCc1c[nH]cn1` [histamine], the “change in extracellular acidification rate (EAR)” value in test [4] is “all cells remained responsive”.
Regarding “MBL: mannan-(or mannose) binding lectin purified from human plasma”, the “change in extracellular acidification rate (EAR)” value in test [4] was “did not evoke receptor-mediated changes in the EAR”.

The record behind these values is patent publication US7273925B1, “Methods and products for regulating lectin complement pathway associated complement activation” (Brigham and Women's Hospital, Inc., priority 1998, dated 2007).
